Where two headings read alike, the source gives them in different places.
Tests used:
[1] = test system: human ES motor neurons carrying the ALS-causing SOD1^A4V mutation; assay: cells; assay type: cell-based; settings: Homo sapiens, Neuron, 72 h, 72 h; for EC50 / Emax: CPA 33 μM; for EC50: read-out: EC50; for viability at 1 µM: CPA (33 μM) + compound (1 μM), read-out: Motor Neuron Survival, % untreated; for Emax: read-out: Emax (MN survival % untreated)
Experimental: Next, survival assays were performed with all the analogs at once to generate a low-variability dataset. All compounds were evaluated at concentrations ranging from 0.1-3.0 μM (five-point dilution) in three technical replicates and two biological replicates.

[2] = molecular target: T1, MLK3/MAP3K11 (Homo sapiens, UniProt Q16584); assay: Radiolabeled ATP kinase assay (Reaction Biology Corp.), MLK3; assay type: biochemical; settings: [Cmpd] 0.1 μM; 10 μM ATP
T1 construct: purchased Reaction Biology Corp
T1 sequence (Q16584 whole entry): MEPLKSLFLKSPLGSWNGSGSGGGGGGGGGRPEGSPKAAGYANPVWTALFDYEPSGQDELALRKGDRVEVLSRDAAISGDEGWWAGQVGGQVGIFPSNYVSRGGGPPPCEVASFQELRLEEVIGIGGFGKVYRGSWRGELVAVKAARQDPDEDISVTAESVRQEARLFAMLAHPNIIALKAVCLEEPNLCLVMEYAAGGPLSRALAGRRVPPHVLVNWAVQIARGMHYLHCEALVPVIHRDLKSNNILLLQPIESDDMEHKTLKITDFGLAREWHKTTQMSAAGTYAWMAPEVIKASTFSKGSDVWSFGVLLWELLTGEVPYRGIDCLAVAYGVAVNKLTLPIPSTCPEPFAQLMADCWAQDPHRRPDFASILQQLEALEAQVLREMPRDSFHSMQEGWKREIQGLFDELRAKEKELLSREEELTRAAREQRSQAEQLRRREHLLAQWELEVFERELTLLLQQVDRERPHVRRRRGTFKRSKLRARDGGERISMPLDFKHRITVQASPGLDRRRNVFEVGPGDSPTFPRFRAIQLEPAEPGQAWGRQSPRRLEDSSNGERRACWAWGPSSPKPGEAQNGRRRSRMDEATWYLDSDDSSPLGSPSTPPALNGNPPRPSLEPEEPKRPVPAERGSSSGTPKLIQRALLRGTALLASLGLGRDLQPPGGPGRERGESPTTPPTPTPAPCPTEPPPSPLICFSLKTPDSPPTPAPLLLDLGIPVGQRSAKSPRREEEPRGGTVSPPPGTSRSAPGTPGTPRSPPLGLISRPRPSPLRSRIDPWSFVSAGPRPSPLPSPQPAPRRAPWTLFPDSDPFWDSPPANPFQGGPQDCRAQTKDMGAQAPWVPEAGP
Experimental: (§1) Meanwhile, the same analogs were analyzed in a radiolabeled ATP assay (10 μM ATP; Reaction Biology Corp.) to compare the extent to which they could inhibit the activity of HGK, MLK1, or MLK3 in a cell-free environment (Table S3 and S4).

[3] = molecular target: T2, MLK1/MAP3K9 (Homo sapiens, UniProt P80192); assay: Radiolabeled ATP kinase assay (Reaction Biology Corp.), MLK1; assay type: biochemical; settings: [Cmpd] 0.1 μM, 10 μM ATP
T2 construct: purchased Reaction Biology Corp
Experimental: as §1

[4] = molecular target: T3, panel of 60 human kinases (Homo sapiens, UniProt O60285); assay: Radiolabeled ATP kinase assay, panel of 60 kinases (Table S5); assay type: biochemical; settings: ARK5/NUAK1; 0.1 μM; 10 μM ATP; read-out: % Enzyme Activity (relative to DSMO controls)
T3 construct: purchased Reaction Biology Corp
T3 sequence (O60285 1-661): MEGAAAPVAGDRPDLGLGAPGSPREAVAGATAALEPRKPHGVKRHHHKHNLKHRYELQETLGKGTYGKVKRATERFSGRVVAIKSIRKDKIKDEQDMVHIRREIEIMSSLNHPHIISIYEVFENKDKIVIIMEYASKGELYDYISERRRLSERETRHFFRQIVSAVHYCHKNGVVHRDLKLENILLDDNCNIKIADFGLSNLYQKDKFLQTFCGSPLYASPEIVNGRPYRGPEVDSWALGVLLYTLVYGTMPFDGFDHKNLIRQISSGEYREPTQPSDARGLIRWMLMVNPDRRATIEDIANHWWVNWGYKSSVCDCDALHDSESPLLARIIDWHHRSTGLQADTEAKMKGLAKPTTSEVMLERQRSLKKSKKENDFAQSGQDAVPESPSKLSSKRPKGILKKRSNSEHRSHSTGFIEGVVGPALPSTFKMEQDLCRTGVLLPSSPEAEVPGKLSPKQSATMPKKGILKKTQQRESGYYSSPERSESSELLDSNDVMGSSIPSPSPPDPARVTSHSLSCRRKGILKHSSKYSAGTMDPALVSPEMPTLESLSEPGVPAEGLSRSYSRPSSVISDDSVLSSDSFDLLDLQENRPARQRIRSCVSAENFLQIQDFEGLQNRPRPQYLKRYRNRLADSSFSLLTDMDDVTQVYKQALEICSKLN
Experimental: (§2) To better understand the biologically relevant targets of compound 1 and its analogs, a second round of cell-free kinase assays was performed. In this expanded assay, we selected ten analogs ranging from moderately to very strongly protective in the CPA assay. These analogs were evaluated for their ability to inhibit a selection of 60 kinases at 0.1 μM and 0.5 μM. […] RNAseq data were used to confirm the expression of each kinase in ES MNs (see Example 12).
(§3) RNAseq data were used to confirm the expression of each kinase in ES motor neurons (see Example 12).

[5] = molecular target: T4, panel of 60 human kinases (Homo sapiens, UniProt Q92918); assay: as above; assay type: biochemical; settings: HPK1/MAP4K1; 0.1 μM; 10 μM ATP; read-out: % Enzyme Activity (relative to DSMO controls)
T4 construct: purchased Reaction Biology Corp
T4 sequence (Q92918 whole entry): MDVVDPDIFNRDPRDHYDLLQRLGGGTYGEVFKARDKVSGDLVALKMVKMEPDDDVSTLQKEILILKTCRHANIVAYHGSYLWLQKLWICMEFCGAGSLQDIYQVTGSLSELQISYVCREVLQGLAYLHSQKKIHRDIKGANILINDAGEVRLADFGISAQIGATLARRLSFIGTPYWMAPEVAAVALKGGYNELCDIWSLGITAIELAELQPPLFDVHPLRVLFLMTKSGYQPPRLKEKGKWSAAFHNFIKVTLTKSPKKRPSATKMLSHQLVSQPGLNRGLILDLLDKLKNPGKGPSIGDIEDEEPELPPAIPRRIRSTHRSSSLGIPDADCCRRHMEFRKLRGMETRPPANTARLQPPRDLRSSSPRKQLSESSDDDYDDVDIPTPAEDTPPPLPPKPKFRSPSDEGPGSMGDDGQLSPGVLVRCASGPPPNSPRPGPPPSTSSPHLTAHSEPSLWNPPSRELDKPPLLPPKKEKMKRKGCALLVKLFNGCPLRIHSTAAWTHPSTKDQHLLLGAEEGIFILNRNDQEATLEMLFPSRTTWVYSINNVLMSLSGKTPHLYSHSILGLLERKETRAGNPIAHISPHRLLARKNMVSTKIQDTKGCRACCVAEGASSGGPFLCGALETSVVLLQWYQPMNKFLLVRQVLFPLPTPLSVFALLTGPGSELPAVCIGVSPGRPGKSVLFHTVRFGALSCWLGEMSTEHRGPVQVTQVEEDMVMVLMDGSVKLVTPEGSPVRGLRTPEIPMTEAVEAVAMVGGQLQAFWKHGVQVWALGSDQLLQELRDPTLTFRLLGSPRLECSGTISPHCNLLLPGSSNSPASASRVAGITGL
Experimental: as §2, §3

[6] = molecular target: T5, panel of 60 human kinases (Homo sapiens, UniProt Q9H2K8); assay: as above; assay type: biochemical; settings: TAOK3/JIK; 0.1 μM; 10 μM ATP; read-out: % Enzyme Activity (relative to DSMO controls)
T5 construct: purchased Reaction Biology Corp
T5 sequence (Q9H2K8 1-898): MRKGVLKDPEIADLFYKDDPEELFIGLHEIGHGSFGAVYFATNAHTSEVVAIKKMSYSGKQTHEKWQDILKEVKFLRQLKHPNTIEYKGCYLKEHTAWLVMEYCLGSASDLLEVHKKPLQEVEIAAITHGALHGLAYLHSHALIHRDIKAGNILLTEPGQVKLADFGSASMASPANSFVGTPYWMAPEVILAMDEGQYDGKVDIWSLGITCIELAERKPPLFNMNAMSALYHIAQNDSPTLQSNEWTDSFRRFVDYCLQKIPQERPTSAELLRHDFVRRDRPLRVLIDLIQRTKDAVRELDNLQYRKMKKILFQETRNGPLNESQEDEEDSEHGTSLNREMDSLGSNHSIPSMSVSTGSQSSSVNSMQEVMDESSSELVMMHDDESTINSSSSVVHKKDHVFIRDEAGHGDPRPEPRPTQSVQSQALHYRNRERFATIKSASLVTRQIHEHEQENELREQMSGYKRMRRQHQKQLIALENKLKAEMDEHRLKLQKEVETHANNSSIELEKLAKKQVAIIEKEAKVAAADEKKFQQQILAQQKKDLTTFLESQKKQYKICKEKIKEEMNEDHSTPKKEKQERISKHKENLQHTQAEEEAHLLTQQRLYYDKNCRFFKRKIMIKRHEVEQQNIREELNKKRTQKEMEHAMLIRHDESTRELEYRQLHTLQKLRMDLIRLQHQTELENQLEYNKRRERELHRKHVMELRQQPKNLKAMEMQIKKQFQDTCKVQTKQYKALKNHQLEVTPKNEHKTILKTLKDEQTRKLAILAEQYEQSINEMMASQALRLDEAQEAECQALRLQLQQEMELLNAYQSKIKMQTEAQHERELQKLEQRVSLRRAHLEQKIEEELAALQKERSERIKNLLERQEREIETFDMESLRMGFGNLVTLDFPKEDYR
Experimental: as §2, §3

[7] = molecular target: T6, panel of 60 human kinases (Homo sapiens, UniProt P11362); assay: as above; assay type: biochemical; settings: FGFR1; 0.1 μM; 10 μM ATP; read-out: % Enzyme Activity (relative to DSMO controls)
T6 construct: purchased Reaction Biology Corp
T6 sequence (P11362 22-822): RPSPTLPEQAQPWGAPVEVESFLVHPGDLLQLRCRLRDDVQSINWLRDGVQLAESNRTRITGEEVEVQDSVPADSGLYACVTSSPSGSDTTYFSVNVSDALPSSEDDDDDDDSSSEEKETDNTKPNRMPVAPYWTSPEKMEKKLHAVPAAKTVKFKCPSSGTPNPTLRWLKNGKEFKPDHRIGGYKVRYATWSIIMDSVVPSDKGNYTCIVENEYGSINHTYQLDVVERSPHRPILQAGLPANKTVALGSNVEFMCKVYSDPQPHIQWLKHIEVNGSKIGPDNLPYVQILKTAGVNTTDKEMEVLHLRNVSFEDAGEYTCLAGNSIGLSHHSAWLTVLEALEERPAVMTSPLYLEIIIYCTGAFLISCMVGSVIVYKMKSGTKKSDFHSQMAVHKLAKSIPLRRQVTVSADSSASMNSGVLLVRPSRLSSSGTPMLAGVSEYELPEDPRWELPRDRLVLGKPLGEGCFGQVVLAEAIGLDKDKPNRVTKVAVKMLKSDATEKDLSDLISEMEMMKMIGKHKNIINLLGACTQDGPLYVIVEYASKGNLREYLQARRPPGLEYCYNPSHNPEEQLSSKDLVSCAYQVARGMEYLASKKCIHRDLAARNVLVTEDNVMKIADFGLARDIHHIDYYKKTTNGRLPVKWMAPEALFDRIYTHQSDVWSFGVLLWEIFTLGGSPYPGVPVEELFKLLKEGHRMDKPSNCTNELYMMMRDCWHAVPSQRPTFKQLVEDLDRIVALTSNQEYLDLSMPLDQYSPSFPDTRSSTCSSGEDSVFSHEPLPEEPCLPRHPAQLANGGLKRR
Experimental: as §2, §3

[8] = molecular target: T7, panel of 60 human kinases (Homo sapiens, UniProt Q8N4C8); assay: as above; assay type: biochemical; settings: MINK/MINK1; 0.1 μM; 10 μM ATP; read-out: % Enzyme Activity (relative to DSMO controls)
T7 construct: purchased Reaction Biology Corp
T7 sequence (Q8N4C8 whole entry): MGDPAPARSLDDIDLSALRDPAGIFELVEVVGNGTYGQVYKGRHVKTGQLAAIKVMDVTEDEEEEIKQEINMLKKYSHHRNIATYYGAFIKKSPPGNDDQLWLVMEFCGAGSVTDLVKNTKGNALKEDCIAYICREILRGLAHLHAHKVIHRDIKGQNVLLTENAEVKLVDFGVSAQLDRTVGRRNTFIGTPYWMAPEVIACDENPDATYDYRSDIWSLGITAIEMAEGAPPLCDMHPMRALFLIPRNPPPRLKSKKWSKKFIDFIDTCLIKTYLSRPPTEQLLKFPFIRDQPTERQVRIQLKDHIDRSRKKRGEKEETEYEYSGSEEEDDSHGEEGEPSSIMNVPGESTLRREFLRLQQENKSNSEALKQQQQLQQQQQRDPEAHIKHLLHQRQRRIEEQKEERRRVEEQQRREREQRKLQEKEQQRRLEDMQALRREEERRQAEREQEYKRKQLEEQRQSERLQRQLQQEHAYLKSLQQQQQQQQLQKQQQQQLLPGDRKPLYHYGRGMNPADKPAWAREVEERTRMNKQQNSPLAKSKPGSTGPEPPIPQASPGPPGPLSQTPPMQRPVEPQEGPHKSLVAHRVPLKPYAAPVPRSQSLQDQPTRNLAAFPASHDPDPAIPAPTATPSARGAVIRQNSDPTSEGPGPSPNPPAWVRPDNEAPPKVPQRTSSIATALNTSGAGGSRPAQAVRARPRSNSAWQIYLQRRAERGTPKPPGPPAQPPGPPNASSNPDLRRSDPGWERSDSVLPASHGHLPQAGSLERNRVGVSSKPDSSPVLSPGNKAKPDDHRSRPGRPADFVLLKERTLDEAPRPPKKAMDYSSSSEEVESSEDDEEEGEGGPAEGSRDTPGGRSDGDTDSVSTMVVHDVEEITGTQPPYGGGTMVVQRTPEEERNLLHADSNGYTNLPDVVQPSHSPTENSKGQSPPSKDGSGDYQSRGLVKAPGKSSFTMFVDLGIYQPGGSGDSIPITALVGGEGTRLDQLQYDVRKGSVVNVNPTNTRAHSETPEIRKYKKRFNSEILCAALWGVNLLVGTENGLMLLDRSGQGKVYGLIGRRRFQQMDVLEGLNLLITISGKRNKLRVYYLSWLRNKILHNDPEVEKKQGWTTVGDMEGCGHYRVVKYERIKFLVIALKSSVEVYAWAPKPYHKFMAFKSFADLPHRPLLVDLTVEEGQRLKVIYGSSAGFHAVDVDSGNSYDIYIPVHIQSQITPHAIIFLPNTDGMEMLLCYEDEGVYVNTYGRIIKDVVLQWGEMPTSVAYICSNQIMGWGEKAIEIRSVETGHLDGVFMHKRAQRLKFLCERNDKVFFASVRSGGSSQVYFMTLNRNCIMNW
Experimental: as §2, §3

[9] = molecular target: HGK/MAP4K4 (Homo sapiens, UniProt O95819); assay: Radiolabeled ATP kinase assay (Reaction Biology Corp.), HGK; assay type: biochemical; parameters: purchased Reaction Biology Corp; settings: 10 μM ATP, read-out: % Enzyme Activity (relative to DMSO controls), HGK/MAP4K4, Data 1; for remaining activity at 0.025 µM: [Cmpd] 0.025 μM; for remaining activity at 0.1 µM: [Cmpd] 0.1 μM
Chain of HGK/MAP4K4 (O95819 whole entry): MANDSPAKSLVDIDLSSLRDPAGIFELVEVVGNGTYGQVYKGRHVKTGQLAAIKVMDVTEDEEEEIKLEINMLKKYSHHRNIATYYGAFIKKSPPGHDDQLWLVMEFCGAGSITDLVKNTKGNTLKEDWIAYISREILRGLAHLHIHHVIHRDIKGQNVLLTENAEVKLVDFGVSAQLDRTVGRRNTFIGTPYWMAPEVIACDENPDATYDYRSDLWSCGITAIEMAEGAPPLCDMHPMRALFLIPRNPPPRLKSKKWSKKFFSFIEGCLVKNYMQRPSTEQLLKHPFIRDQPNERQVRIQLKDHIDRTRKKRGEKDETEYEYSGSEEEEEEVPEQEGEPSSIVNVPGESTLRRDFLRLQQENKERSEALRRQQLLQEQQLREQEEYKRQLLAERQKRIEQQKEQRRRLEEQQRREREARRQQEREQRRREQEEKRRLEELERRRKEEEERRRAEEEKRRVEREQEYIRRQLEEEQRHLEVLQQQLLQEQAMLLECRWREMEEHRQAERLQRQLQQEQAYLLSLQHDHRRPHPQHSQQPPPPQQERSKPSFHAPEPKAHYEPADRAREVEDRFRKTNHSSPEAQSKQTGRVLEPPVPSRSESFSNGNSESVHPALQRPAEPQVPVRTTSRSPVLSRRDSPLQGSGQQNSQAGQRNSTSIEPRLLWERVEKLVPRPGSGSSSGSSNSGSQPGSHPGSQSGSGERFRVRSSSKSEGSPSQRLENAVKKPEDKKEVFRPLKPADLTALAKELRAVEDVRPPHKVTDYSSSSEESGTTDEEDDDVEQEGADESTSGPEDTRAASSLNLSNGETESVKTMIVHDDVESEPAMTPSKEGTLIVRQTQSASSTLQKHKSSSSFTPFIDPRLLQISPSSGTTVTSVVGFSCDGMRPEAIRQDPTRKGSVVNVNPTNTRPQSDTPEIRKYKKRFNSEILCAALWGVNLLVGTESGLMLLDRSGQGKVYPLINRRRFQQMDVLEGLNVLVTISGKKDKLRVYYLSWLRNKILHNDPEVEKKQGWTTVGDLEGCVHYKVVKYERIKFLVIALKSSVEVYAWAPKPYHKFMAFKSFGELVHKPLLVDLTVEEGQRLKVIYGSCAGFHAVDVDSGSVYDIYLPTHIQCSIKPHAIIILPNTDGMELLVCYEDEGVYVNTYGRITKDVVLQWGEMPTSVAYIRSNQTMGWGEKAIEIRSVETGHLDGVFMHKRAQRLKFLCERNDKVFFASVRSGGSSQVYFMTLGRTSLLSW
Experimental: as §1

[10] = read-out: % Enzyme Activity Remaining (relative to DMSO controls), MLK1/MAP3K9, Data 1
[11] = read-out: % Enzyme Activity Remaining (relative to DMSO controls), MLK1/MAP3K9, Data 2

## CN1CCN(Cc2ccc(-c3cnc4[nH]cc(-c5ccoc5)c4c3)cc2)CC1 [Compound 7w, 3-(Furan-3-yl)-5-(4-((4-methylpiperazin-1-yl)methyl)phenyl)-1H-pyrrolo[2,3-b]pyridine]
[1]
  EC50: 1.37 µM
  viability at 1 µM: 46.6%
  Emax: 0.42%
[2]
  % Enzyme Activity Remaining (relative to DMSO controls), MLK3/MAP3K11, Data 1: 75.10%
  % Enzyme Activity Remaining (relative to DMSO controls), MLK3/MAP3K11, Data 2: 76.98%
[3]; [10]
  remaining activity at 0.1 µM: 76%
[3]; [11]
  remaining activity at 0.1 µM: 79.3%
[4]
  remaining activity at 0.1 µM: 14.8%
[5]
  remaining activity at 0.1 µM: 62.4%
[6]
  remaining activity at 0.1 µM: 95.2%
[7]
  remaining activity at 0.1 µM: 93.1%
[8]
  remaining activity at 0.1 µM: 3.72%
[9]
  remaining activity at 0.025 µM: 29%
  remaining activity at 0.1 µM: 4.46%

## CN1CCN(Cc2ccc(-c3cnc4[nH]cc(-c5ccc6c(c5)OCCO6)c4c3)cc2)CC1 [Compound 7d, 3-(2,3-Dihydrobenzo[b][1,4]dioxin-6-yl)-5-(4-((4-methylpiperazin-1-yl)methyl)phenyl)-1H-pyrrolo[2,3-b]pyridine]
[1]
  EC50: 0.327 µM
  viability at 1 µM: 72.9%
  Emax: 72.9%
[2]
  % Enzyme Activity Remaining (relative to DMSO controls), MLK3/MAP3K11, Data 1: 25.04%
  % Enzyme Activity Remaining (relative to DMSO controls), MLK3/MAP3K11, Data 2: 18.84%
[3]; [10]
  remaining activity at 0.1 µM: 25.6%
[3]; [11]
  remaining activity at 0.1 µM: 23.6%
[4]
  remaining activity at 0.1 µM: 20.8%
[5]
  remaining activity at 0.1 µM: 11.3%
[6]
  remaining activity at 0.1 µM: 67.9%
[7]
  remaining activity at 0.1 µM: 93.2%
[8]
  remaining activity at 0.1 µM: 6.69%
[9]
  remaining activity at 0.025 µM: 19.6%
  remaining activity at 0.1 µM: 4.25%

## Cc1nn(C)c(C)c1-c1c[nH]c2ncc(-c3ccc(CN4CCN(C)CC4)cc3)cc12 [Compound 7ai, 5-(4-((4-Methylpiperazin-1-yl)methyl)phenyl)-3-(1,3,5-trimethyl-1H-pyrazol-4-yl)-1H-pyrrolo[2,3-b]pyridine]
[1]
  EC50: 3.23 µM
  Emax: 86.5%
[2]
  % Enzyme Activity Remaining (relative to DMSO controls), MLK3/MAP3K11, Data 1: 93.11%
  % Enzyme Activity Remaining (relative to DMSO controls), MLK3/MAP3K11, Data 2: 88.00%
[3]; [10]
  remaining activity at 0.1 µM: 93.3%
[3]; [11]
  remaining activity at 0.1 µM: 90.5%
[4]
  remaining activity at 0.1 µM: 21.6%
[5]
  remaining activity at 0.1 µM: 67.8%
[6]
  remaining activity at 0.1 µM: 102%
[7]
  remaining activity at 0.1 µM: 97.5%
[8]
  remaining activity at 0.1 µM: 7.8%
[9]
  remaining activity at 0.025 µM: 105%
  remaining activity at 0.1 µM: 106%

Reference: US12227500B2, “Substituted pyrrolo[2,3-b]pyridines for suppressing toxic endoplasmic reticulum stress” (THE TRUSTEES OF COLUMBIA UNIVERSITY IN THE CITY OF NEW YORK, priority 2018, dated 2025)
